Measured values: patent publication US10081601B2, “Glucocerebrosidase modulators and uses thereof” (Alectos Therapeutics Inc., priority 2013, dated 2018)

Molecular target: GCase enzyme (Cerezyme®, recombinant human GCase) (Homo sapiens, UniProt P04062, R534H)
Details: read-out: GCase Ki; from IC50 by Cheng-Prusoff equation, GCase Km 7.9 mM, pH 7.0
Experimental: Various concentrations of test compounds were prepared in DMSO and then diluted into buffer consisting of 50 mM sodium phosphate 0.25% w/v sodium taurodexoycholate, pH 7.0. […] The reaction solution consisted of 25 μL of 6 mM 4-methylumbelliferone-β-D glucopyranoside in 10% DMSO in the same buffer, 12.5 μL of enzyme and 12.5 μL of various concentrations of test compound diluted in buffer. […] The reaction was initiated by addition of enzyme and allowed to proceed for 20 min at 37° C. to assess GCase activity. […] IC50 values were determined by fitting the data to a log[inhibitor concentration] versus response curve using GraphPad Prism.

GCase enzyme (Cerezyme®, recombinant human GCase), sequence (P04062 40-536 R534H limits assumed): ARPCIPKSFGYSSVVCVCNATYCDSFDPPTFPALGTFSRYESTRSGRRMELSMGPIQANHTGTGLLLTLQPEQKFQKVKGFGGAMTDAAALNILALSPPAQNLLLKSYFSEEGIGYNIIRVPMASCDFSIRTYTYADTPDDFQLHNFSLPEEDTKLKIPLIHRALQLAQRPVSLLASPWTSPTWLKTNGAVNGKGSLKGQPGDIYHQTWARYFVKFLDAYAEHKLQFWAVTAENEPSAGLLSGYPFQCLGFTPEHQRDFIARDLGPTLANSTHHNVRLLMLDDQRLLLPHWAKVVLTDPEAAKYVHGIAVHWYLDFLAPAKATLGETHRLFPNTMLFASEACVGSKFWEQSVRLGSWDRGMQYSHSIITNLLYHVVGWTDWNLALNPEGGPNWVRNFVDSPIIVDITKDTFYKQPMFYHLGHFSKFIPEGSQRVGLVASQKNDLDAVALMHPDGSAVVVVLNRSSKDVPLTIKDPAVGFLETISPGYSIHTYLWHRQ

Row | SMILES | Ki
1 | O[C@H]1[C@H](O)CNC2(CC2)[C@@H]1C(F)F [Example 4, (6R,7R,8S)-8-(difluoromethyl)-4-azaspiro[2.5]octane-6,7-diol] | 8 nM
2 | C[C@@H]1[C@@H](O)[C@H](O)CNC12CC2 [Example 1, (6R,7R,8S)-8-methyl-4-azaspiro[2.5]octane-6,7-diol] | 2.6 nM
